Measurements: US7709498B2, “Quinoline derivatives as antibacterial agents” (Janssen Pharmaceutica N.V., priority 2005, dated 2010)
In brackets after ≈: the same amount, converted by molar mass.

Assays:
Format in all cases: cell-based
[1] = system: Streptococcus mutans (ATCC33402); test: Microtitre plate assay, IC90 determination, SMU 33402; settings: 90% inhibitory concentration for bacterial growth, 37° C., 24 hours, resazurin fluorescence
Method: (§1) The bacteria used in this study were grown overnight in flasks containing 100 ml Mueller-Hinton Broth (Becton Dickinson—cat. no. 275730) in sterile de-ionized water, with shaking, at 37° C. Stocks (0.5 ml/tube) were stored at −70° C. until use. Bacteria titrations were performed in microtiter plates to detect the TCID50, in which the TCID50 represents the dilution that gives rise to bacterial growth in 50% of inoculated cultures.
(§2) In general, an inoculum level of approximately 100 TCID50 was used for susceptibility testing.
(§3) Flat-bottom, sterile 96-well plastic microtiter plates were filled with 180 μl of sterile deionized water, supplemented with 0.25% BSA. Subsequently, stock solutions (7.8× final test concentration) of compounds were added in 45 μl volumes in column 2. Serial five-fold dilutions (45 μl in 180 μl) were made directly in the microtiter plates from column 2 to reach column 11. Untreated control samples with (column 1) and without (column 12) inoculum were included in each microtiter plate. Depending on the bacteria type, approximately 10 to 60 CFU per well of bacteria inoculum (100 TCID50), in a volume of 100 μl in 2.8× Mueller-Hinton broth medium, was added to the rows A to H, except column 12. The same volume of broth medium without inoculum was added to column 12 in row A to H. The cultures were incubated at 37° C. for 24 hours under a normal atmosphere (incubator with open air valve and continuous ventilation). At the end of incubation, one day after inoculation, the bacterial growth was quantitated fluorometrically. Therefore resazurin (0.6 mg/ml) was added in a volume of 20 μl to all wells 3 hours after inoculation, and the plates were re-incubated overnight. A change in colour from blue to pink indicated the growth of bacteria. The fluorescence was read in a computer-controlled fluorometer (Cytofluor Biosearch) at an excitation wavelength of 530 nm and an emission wavelength of 590 nm. The % growth inhibition achieved by the compounds was calculated according to standard methods. The IC90 (expressed in μg/ml) was defined as the 90% inhibitory concentration for bacterial growth.
(§4) BSU 3639 means Bacillus subtilis (ATCC43639); ECO 25922 means Escherichia coli (ATCC25922); EFA 14506 means Enterococcus faecalis (ATCC14506); EFA 29212 means Enterococcus faecalis (ATCC29212); LMO 49594 means Listeria monocytogenes (ATCC49594); PAE 27853 means Pseudomonas aeruginosa (ATCC27853); SMU 33402 means Streptococcus mutans (ATCC33402); SPN 6305 means Streptococcus pneumoniae (ATCC6305); SPY 8668 means Streptococcus pyogens (ATCC8668); STA 43300 means Staphylococcus aureus (ATCC43300); STA 25923 means Staphylococcus aureus (ATCC25923); STA 29213 means Staphylococcus aureus (ATCC29213); STA RMETH means methicilline resistant Staphylococcus aureus (MRSA) (a clinical isolate from the University of Antwerp). ATCC means American type tissue culture.

[2] = system: Streptococcus pyogens (ATCC8668); test: Microtitre plate assay, IC90 determination, SPY 8668; settings: 90% inhibitory concentration for bacterial growth, 37° C., 24 hours, resazurin fluorescence
Method: as §1, §2, §3, §4

[3] = system: Listeria monocytogenes (ATCC49594); test: Microtitre plate assay, IC90 determination, LMO 49594; settings: 90% inhibitory concentration for bacterial growth, 37° C., resazurin fluorescence; for IC90 (μg/ml) LMO 49594: 24 hours
Method: as §1, §2, §3, §4

[4] = system: Streptococcus pneumoniae (ATCC6305); test: Microtitre plate assay, IC90 determination, SPN 6305; settings: 90% inhibitory concentration for bacterial growth, 37° C., resazurin fluorescence; for IC90 (μg/ml) SPN 6305: 24 hours; for IC90: Streptococcus pneumoniae, ATCC6305, 24 h, read-out: IC90 (μg/ml) SPN 6305
Method: as §1, §2, §3, §4

Structure (SMILES) | IC90 (μg/ml) SMU 33402 [1] [µg/mL] | IC90 (μg/ml) SPN 6305 [4] [µg/mL] | also measured
COc1nc2ccc(Br)cc2cc1C(c1ccccc1)C(O)(CC[N+](C)(C)[O-])c1ccccc1 (racemic) [Compound 11] | 10.4 (≈ 19.9 µM) | – | IC90 (μg/ml) SPY 8668 [2]: 11.7 µg/mL (≈ 22.4 µM); IC90 (μg/ml) LMO 49594 [3]: 11.7 µg/mL (≈ 22.4 µM)
COc1nc2ccc(Br)cc2cc1C(c1ccccc1)C(O)(CCn1cncn1)c1ccccc1 (racemic) [Compound 53] | – | 5.9 (≈ 11.1 µM) | –
COc1nc2ccc(Br)cc2cc1C(c1ccccc1)C(O)(CCN1CCSCC1)c1ccccc1 (racemic) [Compound 55] | – | 0.6 (≈ 1.06 µM) | –
COc1nc2ccc(Br)cc2cc1C(c1ccccc1)C(O)(CC[N+](C)(C)[O-])c1ccccc1 (racemic) [Compound 58] | 5.9 (≈ 11.3 µM) | – | IC90 (μg/ml) SPY 8668 [2]: 8.3 µg/mL (≈ 15.9 µM)
COc1nc2ccc(Br)cc2cc1C(c1ccccc1)C(O)(CCN1CCOCC1)c1ccc2ccccc2c1 (racemic) [Compound 139] | 18.9 (≈ 31.6 µM) | 26.7 (≈ 44.7 µM) | –
COc1nc2ccc(Br)cc2cc1C(c1ccccc1)C(O)(CCN1CCOCC1)c1ccc2ccccc2c1 (racemic) [Compound 140] | 9.5 (≈ 15.9 µM) | – | –
COc1nc2ccc(Br)cc2cc1C(c1ccccc1)C(O)(CCN1CCN(C)CC1)c1cccc2ccccc12 (racemic) [Compound 149] | – | – | IC90 (μg/ml) LMO 49594 [3]: 12.2 µg/mL (≈ 20 µM)
COCCOc1nc2ccc(Br)cc2cc1C(c1ccccc1)C(O)(CCN(C)C)c1cccc(F)c1 (racemic) [Compound 165] | 14.3 (≈ 25.2 µM) | 14.3 (≈ 25.2 µM) | IC90 (μg/ml) SPY 8668 [2]: 11.3 µg/mL (≈ 19.9 µM)
COc1nc2ccc(Br)cc2cc1C(c1ccccc1)C(O)(CCN1CCCC1)c1ccc2ccccc2c1 (racemic) [Compound 171] | – | – | IC90 (μg/ml) SPY 8668 [2]: 11.6 µg/mL (≈ 19.9 µM)
COc1nc2cc(C)c(Br)cc2cc1C(c1ccccc1)C(O)(CCN(C)C)c1cccc(F)c1 (racemic) [Compound 215] | – | – | IC90 (μg/ml) LMO 49594 [3]: 10.7 µg/mL (≈ 19.9 µM)
COc1nc2cc(C)c(Br)cc2cc1C(c1ccccc1)C(O)(CCN(C)C)c1cccc2ccccc12 (racemic) [Compound 226] | – | 14.3 (≈ 25.1 µM) | –
COc1nc2cc(C)c(Br)cc2cc1C(c1ccccc1)C(O)(CCN(C)C)c1cc(F)cc(F)c1 (racemic) [Compound 227] | – | 5.0 (≈ 9 µM) | –
COc1nc2cc(C)c(C)cc2cc1C(c1ccccc1)C(O)(CCN(C)C)c1cccc2ccccc12 (racemic) [Compound 229] | 22.5 (≈ 44.6 µM) | 5.0 (≈ 9.91 µM) | –
CCN(CCC(O)(c1ccc(F)cc1F)C(c1ccccc1)c1cc2cc(Br)ccc2nc1OC)Cc1ccccc1 (racemic) [Compound C] | – | 15.9 (≈ 25.2 µM) | –
COc1nc2ccc(Br)cc2cc1C(c1ccccc1)C(O)(CCN(C)C)c1ccccc1 (single isomer, unassigned) [F] | 22.6 (≈ 44.7 µM) | 25.3 (≈ 50.1 µM) | IC90 (μg/ml) SPY 8668 [2]: 22.6 µg/mL (≈ 44.7 µM)
COc1nc2ccc(Br)cc2cc1C(c1ccccc1)C(O)(CCN(C)C)c1ccccc1 (stereo not drawn) [Compound 4] | – | – | IC90 [4]: 12.7 µg/mL (≈ 25.1 µM)
CCOc1nc2ccc(Br)cc2cc1C(c1ccccc1)C(O)(CCN(C)C)c1ccccc1 (stereo not drawn) [Compound 5] | 10.4 (≈ 20 µM) | – | –
COc1nc2ccc(Br)cc2cc1C(c1ccccc1)C(O)(CCN(C)C)c1ccc(Cl)cc1 (stereo not drawn) [Compound 17] | – | – | IC90 [4]: 0.5 µg/mL (≈ 0.926 µM); IC90 ([3]; Listeria monocytogenes, ATCC49594, 24 h, read-out: IC90 (μg/ml) LMO 49594): 10.8 µg/mL (≈ 20 µM)
CCN(CC)CCC(O)(c1ccccc1)C(c1ccccc1)c1cc2cc(Br)ccc2nc1OC (stereo not drawn) [Compound 19] | – | 13.4 (≈ 25.1 µM) | –
COc1nc2ccc(Br)cc2cc1C(c1ccccc1)C(O)(CCN(C)C)c1cccs1 (stereo not drawn) [Compound 20] | – | 2.6 (≈ 5.08 µM) | –
COc1nc2ccc(Br)cc2cc1C(c1ccccc1)C(O)(CCN(C)C)c1ccsc1 (stereo not drawn) [Compound 24] | – | – | IC90 [4]: 10.2 µg/mL (≈ 19.9 µM)
COc1nc2ccc(Br)cc2cc1C(c1ccc(Cl)cc1)C(O)(CCN(C)C)c1ccccc1 (stereo not drawn) [Compound 37] | – | 12.1 (≈ 22.4 µM) | –
COc1nc2ccc(Br)cc2cc1C(c1ccccc1)C(O)(CCN(C)C)c1cccc(F)c1 (stereo not drawn) [Compound 38] | – | – | IC90 (μg/ml) LMO 49594 [3]: 10.4 µg/mL (≈ 19.9 µM)
